Values quoted from earlier work as cited in patent US9241965B2, “Composition containing Prunus mume extract for external application to skin” (AMOREPACIFIC CORPORATION, priority 2010, dated 2016).

Biological target: T1, TRPV1 (Homo sapiens, UniProt Q8NER1)
T1 construct: endogenous in cells; host or cells: HaCAT cells
Conditions: skin temperature about 42° C.

T1 sequence (Q8NER1 whole entry, species assumed): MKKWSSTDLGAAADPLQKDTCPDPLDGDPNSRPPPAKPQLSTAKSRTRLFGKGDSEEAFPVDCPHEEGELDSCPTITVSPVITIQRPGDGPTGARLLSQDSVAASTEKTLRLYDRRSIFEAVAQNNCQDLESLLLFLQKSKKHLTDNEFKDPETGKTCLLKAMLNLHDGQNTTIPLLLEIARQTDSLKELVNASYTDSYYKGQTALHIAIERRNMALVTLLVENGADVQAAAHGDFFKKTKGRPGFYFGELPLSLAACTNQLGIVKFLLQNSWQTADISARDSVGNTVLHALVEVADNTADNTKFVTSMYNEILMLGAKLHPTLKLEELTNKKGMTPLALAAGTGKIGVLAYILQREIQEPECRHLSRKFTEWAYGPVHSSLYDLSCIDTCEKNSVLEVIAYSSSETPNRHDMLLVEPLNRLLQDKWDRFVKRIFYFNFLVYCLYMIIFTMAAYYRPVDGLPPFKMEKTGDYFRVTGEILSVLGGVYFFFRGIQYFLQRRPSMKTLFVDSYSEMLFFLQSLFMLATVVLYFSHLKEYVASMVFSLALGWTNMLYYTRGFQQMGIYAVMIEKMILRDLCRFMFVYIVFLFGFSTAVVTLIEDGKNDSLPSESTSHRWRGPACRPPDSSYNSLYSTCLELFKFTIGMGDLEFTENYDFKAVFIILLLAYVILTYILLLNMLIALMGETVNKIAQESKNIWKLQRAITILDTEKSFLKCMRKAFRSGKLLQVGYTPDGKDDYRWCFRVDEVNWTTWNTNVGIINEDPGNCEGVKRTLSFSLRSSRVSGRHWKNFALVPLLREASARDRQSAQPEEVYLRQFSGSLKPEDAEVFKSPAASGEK

## Oc1cc2c(cc1O)CN(C(=S)NCCc1ccc(Cl)cc1)CCC2 [capsazepine]
  rate of skin barrier recovery: restores the rate of skin barrier recovery to normal level
